Source: ChEMBL document CHEMBL5606459, “ASAP - WNV NS2B-NS3 protease fluorescence single point” (2024)

Target: T1, NS3 (West Nile virus) (UniProt K4FQI5)
T1 sequence (whole entry): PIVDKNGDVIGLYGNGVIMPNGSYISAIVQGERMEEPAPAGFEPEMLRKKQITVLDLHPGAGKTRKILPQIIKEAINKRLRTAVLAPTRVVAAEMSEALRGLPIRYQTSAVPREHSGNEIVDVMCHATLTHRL
Experiment: (§1) Functional biochemical assay to identify treatments for viral infectious disease that targets West Nile NS2B-NS3 protease. Utilizing a direct enzyme activity measurement method, reading the fluorescence intensity is used to characterize the relative potency of inhibitors as % inhibition. Synthetic construct has been made based on West Nile virus (strain NY-99) by Centre for Medicines Discovery, University of Oxford, and the assay has been performed by Weizmann Institute of Science.The protocol is publicly available: dx.doi.org/10.17504/protocols.io.q26g7yebkgwz/v3
Details: Concentration 50.0 uM, Number of replicates 2.0, Standard deviation 2.0262748168953313 %

With `N=C(N)NCCC[C@H](NC(=O)c1nccs1)C(=O)N[C@@H](CCCCN)C(=O)N[C@@H](C(N)=O)c1ccc(OCc2ccc(C(F)(F)F)cc2)cc1` the inhibition was 80.2%.

Same assay, conditions: Concentration 50.0 uM, Number of replicates 2.0, Standard deviation 6.952329816266579 %

`O=C1c2c(O)ccc([N+](=O)[O-])c2C(=O)c2c([N+](=O)[O-])ccc(O)c21` was tested, and the inhibition was 4.86%.

Same assay, conditions: Concentration 100.0 uM, Number of replicates 2.0, Standard deviation 1.865400633304037 %

For `O=C1c2c(O)ccc([N+](=O)[O-])c2C(=O)c2c([N+](=O)[O-])ccc(O)c21`, the inhibition was 22.8%.

Same assay, conditions: Concentration 100.0 uM, Number of replicates 2.0, Standard deviation 12.945380917885936 %

Work on `N=C(N)NCCC[C@H](NC(=O)c1nccs1)C(=O)N[C@@H](CCCCN)C(=O)N[C@@H](C(N)=O)c1ccc(OCc2ccc(C(F)(F)F)cc2)cc1` yielded an inhibition of 119%.

Target: T1, NS3 (West Nile virus)
Experiment: as §1, with “Stanford University.The” for “Weizmann Institute of Science.The”, “dx.doi.org/10.17504/protocols.io.ewov1dy37vr2/v1” for “dx.doi.org/10.17504/protocols.io.q26g7yebkgwz/v3”
Details: Concentration 50.0 uM, Number of replicates 1.0

First: Cc1nc(C=O)c2ccccn12
Second: O=Cc1nc(-c2ccccc2Cl)n2ccccc12
The inhibition of the first is lower: 33.8% for the first, 41% for the second.

Compared with `O=Cc1ccc(N2CCCCC2)cc1`, `O=Cc1ccc(N2CCCCCC2)cc1` is higher in inhibition: 36.7% for the first, 57% for the second.

Going from `Cc1c(C=O)c2ccccn2c1C(=O)c1ccncc1` to `Cc1c(C=O)c2ccccn2c1C#N`, the inhibition falls from 63.6% to 49.8%.

Compared with `Cc1cc(NS(=O)(=O)c2ccc(S(=O)(=O)F)cc2)c[nH]c1=O`, `Nc1ccc2ccc(B(O)O)cc2c1` is lower in inhibition: 14.8% for the first, -5.6% for the second.

Compared with `O=Cc1ccc(N2CCC(C(=O)O)CC2)cc1`, `O=Cc1ccc(N2CCC(C(=O)O)CC2)o1` is lower in inhibition: 69.5% for the first, 65.4% for the second.

Compared with `CN(C)c1ccc(C=C(C#N)C(N)=O)cc1`, `CC[C@H]1CO[C@H](C)CN1c1ccc(C=O)cn1` is higher in inhibition: 38.2% for the first, 61.8% for the second.
